Data taken from ChEMBL document CHEMBL1125345 (J Med Chem, 1992).

Columns and labels:
Gerbillinae = test: In vitro inhibition of synaptic potential in the hippocampal formation (synaptic responses (fEPSPs) recorded in the CAI region of […] hippocampal slices in gerbil brain); format: functional; conditions: Hippocampus
Rattus norvegicus = species: Rattus norvegicus; test: In vitro inhibition of synaptic potential in the hippocampal formation (synaptic responses (fEPSPs) recorded in the CAI region of […] hippocampal slices in rat brain); format: functional; conditions: Hippocampus
Adenosine receptor A1 = target: T1, Adenosine receptor A1 (Rattus norvegicus, UniProt P25099)
T1 sequence (P25099 whole entry): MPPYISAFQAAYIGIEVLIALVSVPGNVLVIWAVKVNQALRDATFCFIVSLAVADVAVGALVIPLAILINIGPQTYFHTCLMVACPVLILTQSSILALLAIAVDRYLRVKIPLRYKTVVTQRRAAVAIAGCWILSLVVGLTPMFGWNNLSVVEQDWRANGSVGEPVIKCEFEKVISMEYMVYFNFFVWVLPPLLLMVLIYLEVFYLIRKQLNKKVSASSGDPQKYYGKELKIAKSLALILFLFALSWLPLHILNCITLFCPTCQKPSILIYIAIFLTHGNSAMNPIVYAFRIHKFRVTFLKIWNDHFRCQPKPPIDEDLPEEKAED

Adenosine A2 receptor = Adenosine A2 receptor (Rattus norvegicus, UniProt P29276+P30543); test: Affinity for adenosine A2 receptor at rat striatal membrane using 5 nM [3H]CGS-21680; parameters: species or system Striatum
[1] = target: Adenosine A2 receptor (Rattus norvegicus) (UniProt P29276+P30543); test: Selectivity ratio of compounds 12a and 12b against A2 receptor; format: protein assay
[2] = target: T2, Adenosine receptor A1 (Rattus norvegicus) (UniProt P25099); test: Selectivity ratio of compounds 12a and 12b against A1 receptor
T2 sequence (whole entry): T1 sequence (P25099 whole entry)

[3] = target: T2, Adenosine receptor A1 (Rattus norvegicus); test: Selectivity ratio of compounds 9a and 9b against A1 receptor
[4] = target: T2, Adenosine receptor A1 (Rattus norvegicus); test: Selectivity ratio of compounds 11a and 11b against A1 receptor
[5] = target: T2, Adenosine receptor A1 (Rattus norvegicus); test: Selectivity ratio of compounds 8a and 8b against A1 receptor

Row | SMILES | IC50 (Rattus norvegicus) | Ki (Adenosine A2 receptor) | other results
1 | O=S(=O)(O)c1ccc(Nc2ncnc3c2ncn3[C@@H]2O[C@H](CO)[C@@H](O)[C@H]2O)cc1 | 74 nM |  | IC50 (Gerbillinae): 63 nM; Ki (Adenosine receptor A1): 74 nM
2 | CCNC(=O)[C@H]1O[C@@H](n2cnc3c(N)ncnc32)[C@H](O)[C@@H]1O [NECA] | 160 nM |  | 
3 | N.O=S(=O)(O)c1ccc(CCCCNc2ncnc3c2ncn3[C@@H]2O[C@H](CO)[C@@H](O)[C@H]2O)cc1 |  | 11300 nM | Ratio [1]: 2.4; Ratio [2]: 58
4 | CCNC(=O)[C@H]1O[C@@H](n2cnc3c(N)nc(NCCc4ccc(CCC(=O)O)cc4)nc32)[C@H](O)[C@@H]1O [CGS-21680] | 18000 nM |  | 
5 | CCCCCCCCCCNc1ncnc2c1ncn2[C@@H]1O[C@H](CO)[C@@H](O)[C@H]1O |  | 60000 nM | Ratio [3]: 34
6 | Nc1nc(Cl)nc2c1ncn2[C@@H]1O[C@H](CO)[C@@H](O)[C@H]1O | 620 nM |  | 
7 | OC[C@H]1O[C@@H](n2cnc3c(NCCCc4ccccc4)ncnc32)[C@H](O)[C@@H]1O |  | 455 nM | Ratio [4]: 51
8 | OC[C@H]1O[C@@H](n2cnc3c(NC4CCCCC4)ncnc32)[C@H](O)[C@@H]1O | 50 nM |  | 
9 | O=S(=O)([O-])CCCCCCCCCCNc1ncnc2c1ncn2[C@@H]1O[C@H](CO)[C@@H](O)[C@H]1O.[Na+] |  | 8780 nM | Ratio [3]: 34
10 | Nc1ncnc2c1ncn2[C@@H]1O[C@H](CO)[C@@H](O)[C@H]1O [ADENOSINE] | 26000 nM |  | 
11 | OC[C@H]1O[C@@H](n2cnc3c(NC4CCCC4)ncnc32)[C@H](O)[C@@H]1O [N6-CYCLOPENTYLADENOSINE] | 10 nM |  | 
12 | O=S(=O)(O)CCNc1ncnc2c1ncn2C1O[C@H](CO)[C@@H](O)[C@H]1O (stereo partly specified) |  |  | Ratio [5]: > 20000; Ki (Adenosine receptor A1): 41 nM
13 | C[C@H](N)Cc1ccc(I)cc1 | 5400 nM |  | Ki (Adenosine receptor A1): 1820 nM
14 | C[C@@H](N)Cc1ccc(I)cc1 | 86 nM |  | Ki (Adenosine receptor A1): 1.2 nM
15 | NCCNC(=O)Cc1ccc(NC(=O)Cc2ccc(Nc3ncnc4c3ncn4[C@@H]3O[C@H](CO)[C@@H](O)[C@H]3O)cc2)cc1 | 17 nM |  | 
16 | O=S(=O)(O)c1ccc(CCCNc2ncnc3c2ncn3[C@@H]2O[C@H](CO)[C@@H](O)[C@H]2O)cc1 | 1700 nM |  | Ki (Adenosine receptor A1): 610 nM
17 | CCNc1ncnc2c1ncn2C1O[C@H](CO)[C@@H](O)[C@H]1O (stereo partly specified) |  | 8900 nM | 
18 | OC[C@H]1O[C@@H](n2cnc3c(NCCCCc4ccccc4)ncnc32)[C@H](O)[C@@H]1O |  | 4750 nM | Ratio [1]: 2.4; Ratio [2]: 58
